Numbers after ± are expanded uncertainties.
What was measured:
[1] = Crystal; DTA
[2] = Molar enthalpy of transition or fusion; conditions: Crystal; DSC

Normal melting temperature [1] [°C]	Molar enthalpy of transition or fusion [2] [kcal/mol]	SMILES
104.2 ± 0.53	6.88 ± 0.287	O=C(O)CCCCCC(=O)O [1,7-heptanedioic acid]
121.33 ± 0.53	4.04 ± 0.167	CC(C(=O)O)C(C)C(=O)O (stereo not drawn) [2,3-dimethyl-1,4-butanedioic acid]
85.46 ± 0.53	7.41 ± 0.335	CC(CC(=O)O)CC(=O)O [3-methylpentanedioic acid]
122.93 ± 0.53	4.47 ± 0.172	O=C(O)c1ccccc1 [benzoic acid]

Source: the NIST ThermoML archive (doi:10.1021/je200681k)
